Test results published in patent publication US20250114345A1, “COMPOUNDS AND COMPOSITIONS AS CBP/P300 DEGRADERS AND USES THEREOF” (Oncopia Therapeutics, Inc. d/b/a/ SK Life Science Labs, priority 2023, published 2025).

Key:
[1] = target: T1, p300 (Homo sapiens, UniProt Q09472); assay: P300 degradation, HiBit technology in A549 P300 HiBit cells (2 h); assay type: cell-based; conditions: 2 hrs post treatment; for Dmax: A549, A549 P300 HiBit cells; for DC50 / P300 A549 2 h HiBit DMax (%): A549 P300 HiBit cells
T1 construct: host or cells: A549 P300 HiBit cells
T1 sequence (Q09472 whole entry): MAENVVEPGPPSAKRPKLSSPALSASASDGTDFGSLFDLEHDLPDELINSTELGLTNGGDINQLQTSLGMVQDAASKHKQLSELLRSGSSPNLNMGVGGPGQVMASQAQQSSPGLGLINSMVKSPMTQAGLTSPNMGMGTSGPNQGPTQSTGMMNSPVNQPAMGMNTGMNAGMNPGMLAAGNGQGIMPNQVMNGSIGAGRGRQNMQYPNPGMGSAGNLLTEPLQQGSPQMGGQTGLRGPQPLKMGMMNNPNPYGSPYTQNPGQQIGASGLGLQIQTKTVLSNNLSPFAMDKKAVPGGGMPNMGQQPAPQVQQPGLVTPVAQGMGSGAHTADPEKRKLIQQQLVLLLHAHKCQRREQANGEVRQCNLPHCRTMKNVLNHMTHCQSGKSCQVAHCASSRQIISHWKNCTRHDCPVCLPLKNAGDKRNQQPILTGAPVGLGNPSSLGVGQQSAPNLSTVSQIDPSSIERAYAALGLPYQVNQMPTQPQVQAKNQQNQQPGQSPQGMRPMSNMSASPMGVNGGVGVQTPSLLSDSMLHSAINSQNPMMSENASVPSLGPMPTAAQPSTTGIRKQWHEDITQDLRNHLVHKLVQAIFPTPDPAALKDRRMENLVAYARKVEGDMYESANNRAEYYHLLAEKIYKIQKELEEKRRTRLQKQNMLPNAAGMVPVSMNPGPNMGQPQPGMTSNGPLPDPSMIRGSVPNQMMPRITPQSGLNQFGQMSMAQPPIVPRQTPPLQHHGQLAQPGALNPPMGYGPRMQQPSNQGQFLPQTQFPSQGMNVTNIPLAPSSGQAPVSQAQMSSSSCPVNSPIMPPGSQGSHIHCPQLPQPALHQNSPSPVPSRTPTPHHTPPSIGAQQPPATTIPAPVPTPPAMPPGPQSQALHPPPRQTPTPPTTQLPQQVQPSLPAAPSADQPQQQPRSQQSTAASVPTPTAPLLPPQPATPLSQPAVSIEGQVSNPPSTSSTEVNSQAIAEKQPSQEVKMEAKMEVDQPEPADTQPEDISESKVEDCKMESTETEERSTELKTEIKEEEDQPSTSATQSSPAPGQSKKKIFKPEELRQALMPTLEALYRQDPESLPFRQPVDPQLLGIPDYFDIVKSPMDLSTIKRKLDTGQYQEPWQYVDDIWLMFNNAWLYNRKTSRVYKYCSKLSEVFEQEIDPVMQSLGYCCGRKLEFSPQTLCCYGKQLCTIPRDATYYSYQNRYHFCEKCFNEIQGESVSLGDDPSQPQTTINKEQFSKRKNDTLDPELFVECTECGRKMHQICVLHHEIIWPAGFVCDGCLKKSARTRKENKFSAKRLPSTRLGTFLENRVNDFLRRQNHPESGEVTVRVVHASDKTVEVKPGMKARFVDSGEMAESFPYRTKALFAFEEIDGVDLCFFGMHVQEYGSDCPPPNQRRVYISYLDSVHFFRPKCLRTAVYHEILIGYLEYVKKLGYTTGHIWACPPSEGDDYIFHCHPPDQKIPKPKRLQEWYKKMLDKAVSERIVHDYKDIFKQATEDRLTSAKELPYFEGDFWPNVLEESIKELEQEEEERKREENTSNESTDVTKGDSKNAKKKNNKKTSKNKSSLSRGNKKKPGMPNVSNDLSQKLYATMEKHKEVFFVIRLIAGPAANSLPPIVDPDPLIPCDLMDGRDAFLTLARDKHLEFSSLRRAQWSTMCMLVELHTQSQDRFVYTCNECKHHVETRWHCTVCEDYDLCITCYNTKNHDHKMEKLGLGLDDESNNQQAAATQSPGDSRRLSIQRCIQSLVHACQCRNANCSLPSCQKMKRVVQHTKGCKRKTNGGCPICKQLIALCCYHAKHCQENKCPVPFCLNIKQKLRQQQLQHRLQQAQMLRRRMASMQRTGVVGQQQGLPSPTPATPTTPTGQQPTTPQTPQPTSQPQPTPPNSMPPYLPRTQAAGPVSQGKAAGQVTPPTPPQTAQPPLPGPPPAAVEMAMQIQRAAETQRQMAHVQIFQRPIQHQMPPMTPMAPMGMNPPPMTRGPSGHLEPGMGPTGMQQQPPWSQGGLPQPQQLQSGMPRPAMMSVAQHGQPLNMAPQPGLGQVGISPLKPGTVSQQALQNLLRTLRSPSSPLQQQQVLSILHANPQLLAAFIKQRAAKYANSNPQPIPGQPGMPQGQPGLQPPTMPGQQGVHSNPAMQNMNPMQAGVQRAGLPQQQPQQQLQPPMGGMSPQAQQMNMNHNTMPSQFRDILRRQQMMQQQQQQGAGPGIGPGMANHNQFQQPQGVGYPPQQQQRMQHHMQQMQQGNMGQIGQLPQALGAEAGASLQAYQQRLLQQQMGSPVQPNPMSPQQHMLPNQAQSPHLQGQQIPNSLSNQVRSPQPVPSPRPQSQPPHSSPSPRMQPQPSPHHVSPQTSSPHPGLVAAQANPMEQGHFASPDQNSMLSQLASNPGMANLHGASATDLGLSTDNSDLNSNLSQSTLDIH
Summary of the method: (§1)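 A549 HiBiT knock-in cells seeded overnight at 37 °C, 5% CO2 in F-12K with 10% heat-inactivated FBS, then given serial dilutions of compound from 10 mM DMSO stocks. Lytic HiBiT detection reagent added for 10 min at room temperature; luminescence read. Potency and Dmax reported.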

[2] = target: T2, CBP (Homo sapiens, UniProt Q92793); assay: CBP degradation, HiBit technology in A549 CBP HiBit cells (24 h); assay type: cell-based; conditions: 24 hrs post treatment
T2 construct: host or cells: A549 CBP HiBit cells
T2 sequence (Q92793 whole entry): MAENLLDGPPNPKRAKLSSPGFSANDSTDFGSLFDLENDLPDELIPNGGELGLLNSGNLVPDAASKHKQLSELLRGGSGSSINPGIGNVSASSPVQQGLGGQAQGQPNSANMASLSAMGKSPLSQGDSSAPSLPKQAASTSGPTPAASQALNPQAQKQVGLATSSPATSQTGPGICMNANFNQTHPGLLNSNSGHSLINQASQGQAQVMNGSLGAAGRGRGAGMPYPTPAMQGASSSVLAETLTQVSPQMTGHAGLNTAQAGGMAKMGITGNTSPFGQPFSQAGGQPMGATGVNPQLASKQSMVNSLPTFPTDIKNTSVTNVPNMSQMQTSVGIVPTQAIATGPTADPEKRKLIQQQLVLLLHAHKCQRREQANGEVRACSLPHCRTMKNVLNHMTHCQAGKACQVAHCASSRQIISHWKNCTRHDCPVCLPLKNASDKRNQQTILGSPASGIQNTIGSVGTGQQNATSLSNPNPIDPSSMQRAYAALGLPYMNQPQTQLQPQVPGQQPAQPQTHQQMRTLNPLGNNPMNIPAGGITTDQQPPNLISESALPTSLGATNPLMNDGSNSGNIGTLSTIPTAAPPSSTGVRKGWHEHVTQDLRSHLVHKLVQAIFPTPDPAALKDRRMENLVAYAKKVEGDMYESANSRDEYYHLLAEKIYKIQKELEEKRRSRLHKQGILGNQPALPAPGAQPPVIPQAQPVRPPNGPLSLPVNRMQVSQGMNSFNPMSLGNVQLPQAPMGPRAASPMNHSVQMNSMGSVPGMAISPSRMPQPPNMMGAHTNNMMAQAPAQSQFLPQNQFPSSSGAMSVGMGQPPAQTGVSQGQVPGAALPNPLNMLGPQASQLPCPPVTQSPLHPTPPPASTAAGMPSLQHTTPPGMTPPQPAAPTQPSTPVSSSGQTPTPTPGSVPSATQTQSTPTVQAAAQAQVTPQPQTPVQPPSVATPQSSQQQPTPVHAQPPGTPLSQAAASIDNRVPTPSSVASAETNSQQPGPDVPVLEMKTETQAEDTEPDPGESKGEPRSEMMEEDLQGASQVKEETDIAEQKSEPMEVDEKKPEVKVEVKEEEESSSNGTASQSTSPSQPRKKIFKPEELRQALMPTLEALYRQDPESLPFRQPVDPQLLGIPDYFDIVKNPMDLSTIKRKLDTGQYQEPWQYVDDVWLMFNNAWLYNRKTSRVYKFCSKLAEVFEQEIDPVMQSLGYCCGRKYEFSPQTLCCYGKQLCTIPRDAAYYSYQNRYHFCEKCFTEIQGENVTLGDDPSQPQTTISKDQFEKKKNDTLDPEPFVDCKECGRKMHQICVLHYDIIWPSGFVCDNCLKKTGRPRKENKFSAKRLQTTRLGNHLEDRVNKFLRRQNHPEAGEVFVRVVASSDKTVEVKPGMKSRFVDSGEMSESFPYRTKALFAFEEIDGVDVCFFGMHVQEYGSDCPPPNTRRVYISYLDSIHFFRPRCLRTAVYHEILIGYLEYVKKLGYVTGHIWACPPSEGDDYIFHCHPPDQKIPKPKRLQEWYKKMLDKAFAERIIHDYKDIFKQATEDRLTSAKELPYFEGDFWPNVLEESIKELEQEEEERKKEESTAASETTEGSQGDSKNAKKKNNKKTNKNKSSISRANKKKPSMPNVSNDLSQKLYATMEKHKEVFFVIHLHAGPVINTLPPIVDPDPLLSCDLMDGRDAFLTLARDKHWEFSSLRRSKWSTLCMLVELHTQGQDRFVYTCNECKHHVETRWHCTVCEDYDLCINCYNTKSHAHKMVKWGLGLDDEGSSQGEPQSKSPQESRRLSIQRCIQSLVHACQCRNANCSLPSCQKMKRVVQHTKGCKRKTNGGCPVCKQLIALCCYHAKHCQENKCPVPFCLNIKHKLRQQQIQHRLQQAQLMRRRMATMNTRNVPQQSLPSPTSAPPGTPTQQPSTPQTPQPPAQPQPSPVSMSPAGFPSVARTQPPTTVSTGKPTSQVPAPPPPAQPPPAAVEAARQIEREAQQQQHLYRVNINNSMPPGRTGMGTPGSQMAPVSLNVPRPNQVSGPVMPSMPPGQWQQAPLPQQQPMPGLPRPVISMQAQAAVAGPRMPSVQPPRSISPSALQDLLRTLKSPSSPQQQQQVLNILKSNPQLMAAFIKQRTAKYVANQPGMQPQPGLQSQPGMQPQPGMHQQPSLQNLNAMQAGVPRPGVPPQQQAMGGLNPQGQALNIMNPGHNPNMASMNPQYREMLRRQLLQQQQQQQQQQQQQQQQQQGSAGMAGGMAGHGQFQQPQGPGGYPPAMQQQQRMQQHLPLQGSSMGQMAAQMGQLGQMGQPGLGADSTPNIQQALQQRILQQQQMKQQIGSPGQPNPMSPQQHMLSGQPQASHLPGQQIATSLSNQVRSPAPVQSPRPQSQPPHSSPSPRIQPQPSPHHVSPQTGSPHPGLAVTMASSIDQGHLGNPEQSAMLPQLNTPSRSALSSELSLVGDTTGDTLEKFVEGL
Summary of the method: as §1

SMILES	Dmax [1]	DC50 [1]	DC50 [2]	Dmax [2]	P300 A549 2 h HiBit DMax (%) [1]	CBP A549 24 h HiBit DMax (%) [2]
Cc1cc(-c2ncc3c(n2)OCCN3c2cc(C)c3c(c2)n(C)c(=O)n3C)cnc1C(=O)NCC#Cc1ccc2occ(C3CCC(=O)NC3=O)c2c1 (centres unmarked) [Example A88, N-(3-(3-(2,6-dioxo-piperidin-3-yl)benzofuran-5-yl)prop-2-yn-1-yl)-3-methyl-5-(5-(1,3,7-trimethyl-2-oxo-2,3-dihydro-1H-benzo [d]imidazol-5-yl)-6,7-dihydro-5H-pyrimido [4,5-b][1,4]oxazin-2-yl)picolinamide]	> 80%	> 1000 nM	> 1000 nM	< 20%		
CC(C)c1cc(N2CCOc3nc(-c4ccc(C(=O)NCC#Cc5ccc6occ(C7CCC(=O)NC7=O)c6c5)nc4)ncc32)cc2c1n(C)c(=O)n2C (centres unmarked) [Example A89, N-(3-(3-(2,6-dioxo-piperidin-3-yl)benzofuran-5-yl)prop-2-yn-1-yl)-5-(5-(7-isopropyl-1,3-dimethyl-2-oxo-2,3-dihydro-1H-benzo[d]imidazol-5-yl)-6,7-dihydro-5H-pyrimido [4,5-b][1,4]oxazin-2-yl)picolinamide]	> 80%	> 1000 nM	> 1000 nM	< 20%		
Cc1cc(-c2ncc3c(n2)OCCN3c2ccc3c(c2)n(C)c(=O)n3C)cnc1C(=O)NCC#Cc1ccc2occ(C3CCC(=O)NC3=O)c2c1 (centres unmarked) [Example A92, 5-(5-(1,3-dimethyl-2-oxo-2,3-dihydro-1H-benzo[d]imidazol-5-yl)-6,7-dihydro-5H-pyrimido[4,5-b][1,4]oxazin-2-yl)-N-(3-(3-(2,6-dioxopiperidin-3-yl)benzofuran-5-yl)prop-2-yn-1-yl)-3-methylpicolinamide]		1 to 9.9 nM	> 1000 nM	< 20%	A (“A”: > 80%)	
Cc1cc(-c2ncc3c(n2)OCCN3c2ccc3c(c2)n(C)c(=O)n3C)cnc1C(=O)NCC#Cc1ccc2occ(C3CCC(=O)NC3=O)c2c1 (centres unmarked) [Example A93, 5-(5-(1,3-dimethyl-2-oxo-2,3-dihydro-1H-benzo[d]imidazol-5-yl)-6,7-dihydro-5H-pyrimido[4,5-b][1,4]oxazin-2-yl)-N-(3-(3-(2,6-dioxopiperidin-3-yl)benzofuran-5-yl)prop-2-yn-1-yl)-3-methylpicolinamide]		10 to 99 nM	> 1000 nM		D (“D”: 20-39%)	E (“E”: < 20%)
CCN(c1cnc(-c2cnc(C(=O)NCC#Cc3ccc4occ(C5CCC(=O)NC5=O)c4c3)c(C)c2)nc1)c1cc(C2CCOCC2)c2c(c1)n(C)c(=O)n2C (centres unmarked) [Example A95, 5-(5-((1,3-dimethyl-2-oxo-7-(tetrahydro-2H-pyran-4-yl)-2,3-dihydro-1H-benzo [d]imidazol-5-yl)(ethyl)amino)pyrimidin-2-yl)-N-(3-(3-(2,6-dioxopiperidin-3-yl)benzofuran-5-yl)prop-2-yn-1-yl)-3-methylpicolinamide]	> 80%	1 to 9.9 nM	> 1000 nM	< 20%		
Cc1cc(-c2cccc3cc(-c4ccc(C(=O)NCC#Cc5ccc6occ(C7CCC(=O)NC7=O)c6c5)nc4)ncc23)cc2c1n(C)c(=O)n2C (centres unmarked) [Example A96, N-(3-(3-(2,6-dioxo-piperidin-3-yl)benzofuran-5-yl)prop-2-yn-1-yl)-5-(8-(1,3,7-trimethyl-2-oxo-2,3-dihydro-1H-benzo[d]imidazol-5-yl)isoquinolin-3-yl)picolinamide]	> 80%	1 to 9.9 nM	> 1000 nM	< 20%		
CC(C)c1cc(-c2cn(C)c(=O)c3cc(-c4ccc(C(=O)NCC#Cc5ccc6occ(C7CCC(=O)NC7=O)c6c5)nc4)ncc23)cc2c1n(C)c(=O)n2C (centres unmarked) [Example A97, N-(3-(3-(2,6-dioxo-piperidin-3-yl)benzofuran-5-yl)prop-2-yn-1-yl)-5-(8-(7-isopropyl-1,3-dimethyl-2-oxo-2,3-dihydro-1H-benzo [d]imidazol-5-yl)-6-methyl-5-oxo-5,6-dihydro-2,6-naphthyridin-3-yl) picolinamide]	> 80%	1 to 9.9 nM	10 to 99 nM	40 to 59%		
Cn1c(=O)n(C)c2c(N3C4COCC3C4)nc(-c3cccc4cc(-c5ccc(C(=O)NCC#Cc6ccc7occ(C8CCC(=O)NC8=O)c7c6)nc5)ncc34)cc21 (centres unmarked) [Example A99, 5-(8-(4-(3-oxa-6-azabicyclo[3.1.1]heptan-6-yl)-1,3-dimethyl-2-oxo-2,3-dihydro-1H-imidazo[4,5-c]pyridin-6-yl)isoquinolin-3-yl)-N-(3-(3-(2,6-dioxo-piperidin-3-yl)benzofuran-5-yl)prop-2-yn-1-yl)picolinamide]	> 80%	< 1 nM	> 1000 nM	< 20%		
CC(C)c1cc(N2CCCc3cc(-c4ccc(C(=O)NCC#Cc5ccc6occ(C7CCC(=O)NC7=O)c6c5)nc4)ncc32)cc2c1n(C)c(=O)n2C (centres unmarked) [Example A100, N-(3-(3-(2,6-dioxo-piperidin-3-yl)benzofuran-5-yl)prop-2-yn-1-yl)-5-(1-(7-isopropyl-1,3-dimethyl-2-oxo-2,3-dihydro-1H-benzo [d]imidazol-5-yl)-1,2,3,4-tetrahydro-1,7-naphthyridin-6-yl)picolinamide]	> 80%	1 to 9.9 nM	10 to 99 nM	20 to 39%		
CN1CCN(c2nc(-c3cccc4cc(-c5ccc(C(=O)NCC#Cc6ccc7occ(C8CCC(=O)NC8=O)c7c6)nc5)ncc34)cc3c2n(C)c(=O)n3C)CC1 (centres unmarked) [Example A102, 5-(8-(1,3-dimethyl-4-(4-methylpiperazin-1-yl)-2-oxo-2,3-dihydro-1H-imidazo[4,5-c]pyridin-6-yl)iso-quinolin-3-yl)-N-(3-(3-(2,6-dioxopiperidin-3-yl)benzofuran-5-yl)prop-2-yn-1-yl) picolinamide]	> 80%	< 1 nM	> 1000 nM	< 20%		
CCn1c(=O)n(C)c2c(N3CCOCC3)nc(-c3cccc4cc(-c5ccc(C(=O)NCC#Cc6ccc7occ(C8CCC(=O)NC8=O)c7c6)nc5)ncc34)cc21 (centres unmarked) [Example A108, N-(3-(3-(2,6-dioxo-piperidin-3-yl)benzofuran-5-yl)prop-2-yn-1-yl)-5-(8-(1-ethyl-3-methyl-4-morpholino-2-oxo-2,3-dihydro-1H-imidazo[4,5-c]pyridin-6-yl)isoquinolin-3-yl)picolinamide]	> 80%	1 to 9.9 nM	> 1000 nM	< 20%		
Cc1cc(-c2cc3c(cc2F)N(c2ccc4c(c2)n(C)c(=O)n4C)CCO3)cnc1C(=O)NCC#Cc1ccc2occ(C3CCC(=O)NC3=O)c2c1 (centres unmarked) [Example A111, 5-(4-(1,3-dimethyl-2-oxo-2,3-dihydro-1H-benzo[d]imidazol-5-yl)-6-fluoro-3,4-dihydro-2H-benzo[b] [1,4]oxazin-7-yl)-N-(3-(3-(2,6-dioxo-piperidin-3-yl)benzofuran-5-yl)prop-2-yn-1-yl)-3-methylpicolinamide]	> 80%	10 to 99 nM	> 1000 nM	< 20%		
Cn1c(=O)n(C)c2c(N3CC(O)C3)nc(-c3cccc4cc(-c5ccc(C(=O)NCC#Cc6ccc7occ(C8CCC(=O)NC8=O)c7c6)nc5)ncc34)cc21 (centres unmarked) [Example A115, N-(3-(3-(2,6-dioxo-piperidin-3-yl)benzofuran-5-yl)prop-2-yn-1-yl)-5-(8-(4-(3-hydroxyazetidin-1-yl)-1,3-dimethyl-2-oxo-2,3-dihydro-1H-imidazo[4,5-c]pyridin-6-yl)isoquinolin-3-yl)picolinamide]	> 80%	< 1 nM	> 1000 nM	< 20%		
Cn1c(=O)n(C)c2cc(-c3cccc4cc(-c5ccc(C(=O)NCC#Cc6ccc7occ(C8CCC(=O)NC8=O)c7c6)nc5)ncc34)ccc21 (centres unmarked) [Example A119, 5-(8-(1,3-dimethyl-2-oxo-2,3-dihydro-1H-benzo[d]imidazol-5-yl)isoquinolin-3-yl)-N-(3-(3-(2,6-dioxo-piperidin-3-yl)benzofuran-5-yl)prop-2-yn-1-yl)picolinamide]	> 80%	1 to 9.9 nM	> 1000 nM	< 20%		
CC(C)c1cc(N2CCOc3cc(-c4ccc(C(=O)NCC#Cc5ccc6occ(C7CCC(=O)NC7=O)c6c5)nc4)ccc32)cc2c1n(C)c(=O)n2C (centres unmarked) [Example A121, N-(3-(3-(2,6-dioxo-piperidin-3-yl)benzofuran-5-yl)prop-2-yn-1-yl)-5-(4-(7-isopropyl-1,3-dimethyl-2-oxo-2,3-dihydro-1H-benzo [d]imidazol-5-yl)-3,4-dihydro-2H-benzo [b][1,4]oxazin-7-yl)picolinamide]	60 to 79%	10 to 99 nM	> 1000 nM	< 20%		
CN1CCN(c2ccc3c(c2)n(C)c(=O)n3C)c2cnc(-c3ccc(C(=O)NCC#Cc4ccc5occ(C6CCC(=O)NC6=O)c5c4)nc3)nc21 (centres unmarked) [Example A122, 5-(5-(1,3-dimethyl-2-oxo-2,3-dihydro-1H-benzo[d]imidazol-5-yl)-8-methyl-5,6,7,8-tetrahydropteridin-2-yl)-N-(3-(3-(2,6-dioxopiperidin-3-yl)benzofuran-5-yl)prop-2-yn-1-yl)picolinamide]	> 80%	< 1 nM	> 1000 nM	< 20%		
Cn1c(=O)n(C)c2c(N3CCC(O)CC3)nc(-c3cccc4cc(-c5ccc(C(=O)NCC#Cc6ccc7occ(C8CCC(=O)NC8=O)c7c6)nc5)ncc34)cc21 (centres unmarked) [Example A124, N-(3-(3-(2,6-dioxo-piperidin-3-yl)benzofuran-5-yl)prop-2-yn-1-yl)-5-(8-(4-(4-hydroxypiperidin-1-yl)-1,3-dimethyl-2-oxo-2,3-dihydro-1H-imidazo[4,5-c]pyridin-6-yl)isoquinolin-3-yl)picolinamide]	> 80%	< 1 nM	> 1000 nM	< 20%		
